Measurements as given in ChEMBL document CHEMBL5096171, “Synthesis and Biological Evaluation of PSMA Ligands with Aromatic Residues and Fluorescent Conjugates Based on Them” (J Med Chem, 2021).
Converted amounts (≈) assume the structure as drawn.

Legend:
[1] = Drug uptake in human 22Rv1 cells assessed as decrease in drug accumulation incubated for 1 hr in presence of (3S,7S,25S,28S)-33-Azido-25-benzyl-12-(3-chlorobenzyl)-28-(4-hydroxybenzyl)-5,13,20,23,26,29-hexaoxo-4,6,12,19,24,27,30-heptaazatritriacontane-1,3,7-tricarboxylic acid by flow cytometry; format: ADME, cell-based; details: cwr22r
[2] = target: T1, Glutamate carboxypeptidase 2 (Homo sapiens, UniProt Q04609); test: Inhibition of PMSA in human LNCaP cells assessed as increase in fluorescent signal upto 100 nM incubated for 1 hr by flow cytometry (reference value: 2.11%); format: cell-based
Target sequence in this assay (Q04609 whole entry, looked up): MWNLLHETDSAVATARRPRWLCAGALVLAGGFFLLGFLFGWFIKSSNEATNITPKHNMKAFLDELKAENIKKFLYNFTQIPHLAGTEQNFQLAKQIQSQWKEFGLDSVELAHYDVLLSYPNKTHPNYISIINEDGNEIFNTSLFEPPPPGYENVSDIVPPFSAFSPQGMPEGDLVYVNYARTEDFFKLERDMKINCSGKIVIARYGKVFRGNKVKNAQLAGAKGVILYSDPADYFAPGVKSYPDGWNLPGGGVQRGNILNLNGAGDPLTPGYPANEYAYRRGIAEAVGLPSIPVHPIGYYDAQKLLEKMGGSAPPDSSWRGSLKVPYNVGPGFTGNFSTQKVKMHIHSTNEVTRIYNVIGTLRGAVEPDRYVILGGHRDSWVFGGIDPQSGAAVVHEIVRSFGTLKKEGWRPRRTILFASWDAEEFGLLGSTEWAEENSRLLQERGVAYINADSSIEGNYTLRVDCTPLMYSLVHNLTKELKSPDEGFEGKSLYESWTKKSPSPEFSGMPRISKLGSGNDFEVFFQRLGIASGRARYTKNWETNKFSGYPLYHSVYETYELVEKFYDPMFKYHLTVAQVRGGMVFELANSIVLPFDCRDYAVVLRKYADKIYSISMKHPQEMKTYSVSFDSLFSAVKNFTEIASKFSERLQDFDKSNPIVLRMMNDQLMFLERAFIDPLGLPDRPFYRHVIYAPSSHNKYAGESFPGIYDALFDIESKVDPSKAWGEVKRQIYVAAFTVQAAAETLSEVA

PC-3 = test: Cytotoxicity against human PC-3 cells assessed as reduction in cell viability incubated for 5 days by MTT assay; format: functional; details: PC-3, 120 h, time 5 day
[3] = Drug excretion in […] at 0.449 mg/kg, IT administered as single dose measured after 24 hrs; format: ADME, organism-based, CWR22R; details: in vivo, other
[4] = Water solubility of the compound; format: physicochemical
[5] = target: T1, Glutamate carboxypeptidase 2; test: Inhibition of PSMA derived from human LNCaP cell lysate assessed as inhibition of NAAG hydrolysis incubated for 2 hrs in presence of NAAG by Amplex Red assay; format: subcellular
Target sequence in this assay (Q04609 whole entry): as the sequence (Q04609 whole entry, looked up) above

[6] = Drug uptake in human PC-3 cells xenografted in Balb/c nude mouse assessed as amount of fluorescence intensity at 0.449 mg/kg, IT administered as single dose measured after 24 hrs by IVIS Spectrum CT analysis; format: ADME, organism-based; details: in vivo, other
[7] = Drug excretion in Balb/c nude mouse xenografted with human 22Rv1 cells assessed as non-specifically bound drug at 0.449 mg/kg, IT administered as single dose measured after 24 hrs; format: ADME, organism-based, CWR22R; details: in vivo, other
[8] = Drug localisation in human LNCaP cells assessed as increase in fluorescent signal at 100 nM incubated for 2 hrs by Hoechst 33342 staining based fluorescence microscopy; format: ADME, cell-based; details: 0.1 µM
[9] = Drug uptake in bloodstream of Balb/c nude mouse xenografted with human 22Rv1 cells at 0.449 mg/kg, IT administered as single dose measured after 24 hrs; format: ADME, organism-based, Blood, CWR22R; details: in vivo, other
[10] = target: T1, Glutamate carboxypeptidase 2; test: Inhibition of PMSA in human PC-3 cells assessed as increase in fluorescent signal upto 100 nM incubated for 1 hr by flow cytometry (reference value: 1.14%); format: cell-based
Target sequence in this assay (Q04609 whole entry, looked up): as above

[11] = target: T1, Glutamate carboxypeptidase 2; test: Inhibition of PMSA in human 22Rv1 cells assessed as increase in fluorescent signal upto 100 nM incubated for 1 hr by flow cytometry (reference value: 2.97%); format: cell-based
Target sequence in this assay (Q04609 whole entry, looked up): as above

[12] = Drug uptake in human PC-3 cells assessed as decrease in drug accumulation incubated for 1 hr in presence of (3S,7S,25S,28S)-33-Azido-25-benzyl-12-(3-chlorobenzyl)-28-(4-hydroxybenzyl)-5,13,20,23,26,29-hexaoxo-4,6,12,19,24,27,30-heptaazatritriacontane-1,3,7-tricarboxylic acid by flow cytometry; format: ADME, cell-based; details: pc-3, 1 h
[13] = n-Octanol/aqueous buffer distribution coefficient, log D of compound at pH 6.4 by shake flask method; format: physicochemical
[14] = Drug uptake in human LNCaP cells assessed as fold decrease in drug accumulation incubated for 1 hr in presence of (3S,7S,25S,28S)-33-Azido-25-benzyl-12-(3-chlorobenzyl)-28-(4-hydroxybenzyl)-5,13,20,23,26,29-hexaoxo-4,6,12,19,24,27,30-heptaazatritriacontane-1,3,7-tricarboxylic acid by flow cytometry; format: ADME, cell-based
[15] = Drug uptake in human 22Rv1 cells xenografted in Balb/c nude mouse assessed as amount of fluorescence intensity at 0.449 mg/kg, IT administered as single dose measured after 24 hrs by IVIS Spectrum CT analysis; format: ADME, organism-based, CWR22R; details: in vivo, other
[16] = Drug uptake in skin capillary of Balb/c nude mouse xenografted with human 22Rv1 cells at 0.449 mg/kg, IT administered as single dose measured after 24 hrs; format: ADME, organism-based, Skin of body, CWR22R; details: in vivo, other
LNCaP = test: Cytotoxicity against human LNCaP cells assessed as reduction in cell viability incubated for 5 days by MTT assay; format: functional; details: 120 h, time 5 day
[17] = Drug distribution in small intestine of Wistar Albino rat measured after 2 to 4 hrs; format: ADME, tissue-based; details: in vivo, time 2-4 hrs
[18] = Half life in Soviet Chinchilla rabbit by HPLC analysis; format: ADME, Oryctolagus cuniculus; details: in vivo
[19] = Chronic toxicity in Soviet Chinchilla rabbit assessed as change in brain histology at 120 to 243 mg/kg, iv administered once every 3 weeks; format: organism-based, Oryctolagus cuniculus; details: in vivo, 504 h, dose 120-243 mg/kg
[20] = Drug distribution in kidney of Wistar Albino rat measured after 2 to 4 hrs; format: ADME, tissue-based; details: in vivo, time 2-4 hrs
[21] = Acute toxicity in 2 hrs fasted ICR mouse assessed as restoration of mass gain rate at 89.7 mg/kg, iv measured on day 14; format: organism-based; details: in vivo, 336 h, time 14 day
[22] = Elimination rate constant in Wistar Albino rat by HPLC analysis; format: ADME
[23] = AUC (0 to t) in Soviet Chinchilla rabbit by HPLC analysis; format: ADME, Oryctolagus cuniculus; details: in vivo
[24] = Chronic toxicity in Soviet Chinchilla rabbit assessed as change in spleen histology at 120 to 243 mg/kg, iv administered once every 3 weeks; format: organism-based, Oryctolagus cuniculus; details: in vivo, 504 h, dose 120-243 mg/kg
[25] = Chronic toxicity in Soviet Chinchilla rabbit assessed as change in kidney histology at 120 to 243 mg/kg, iv administered once every 3 weeks; format: organism-based, Oryctolagus cuniculus; details: in vivo, 504 h, dose 120-243 mg/kg
[26] = Acute toxicity in 10 to 12 hrs fasted Wistar rat assessed as toxic effect at 0.72 to 45 mg/kg, iv measured after 14 days; format: organism-based; details: in vivo, 336 h, dose 0.72-45 mg/kg, time 14 day
[27] = Chronic toxicity in Soviet Chinchilla rabbit assessed as change in heart histology at 120 to 243 mg/kg, iv administered once every 3 weeks; format: organism-based, Oryctolagus cuniculus; details: in vivo, 504 h, dose 120-243 mg/kg
[28] = Acute toxicity in 2 hrs fasted ICR mouse assessed as reversible decrease in body weight dynamics at 89.7 mg/kg, iv measured after 14 days; format: organism-based; details: in vivo, 336 h, time 14 day
[29] = Drug uptake in bloodstream of Balb/c nude mouse xenografted with human 22Rv1 cells at 0.449 mg/kg, IT administered as single dose measured upto 8 hrs; format: ADME, organism-based, Blood, CWR22R; details: in vivo, other
[30] = Acute toxicity in 10 to 12 hrs fasted Wistar rat assessed as increase in kidney damage at 45 mg/kg, iv measured after 14 days; format: organism-based; details: in vivo, 336 h, time 14 day
[31] = Chronic toxicity in Soviet Chinchilla rabbit assessed as change in lung histology at 120 to 243 mg/kg, iv administered once every 3 weeks; format: organism-based, Oryctolagus cuniculus; details: in vivo, 504 h, dose 120-243 mg/kg
[32] = Chronic toxicity in Soviet Chinchilla rabbit assessed as change in liver histology at 120 to 243 mg/kg, iv administered once every 3 weeks; format: organism-based, Oryctolagus cuniculus; details: in vivo, 504 h, dose 120-243 mg/kg
[33] = AUC (0 to t) in Wistar Albino rat by HPLC analysis; format: ADME; details: in vivo
[34] = Acute toxicity in 10 to 12 hrs fasted Wistar rat assessed as maximum tolerated dose administered intravenously measured after 14 days; details: in vivo, route iv, time 14 day
[35] = Acute toxicity in 10 to 12 hrs fasted Wistar rat assessed as change in body weight dynamics at 0.72 to 45 mg/kg, iv measured after 14 days; format: organism-based; details: in vivo, 336 h, dose 0.72-45 mg/kg, time 14 day
[36] = Acute toxicity in 2 hrs fasted ICR mouse assessed as toxic effect at 1.1 mg/kg, iv measured after 14 days; format: organism-based; details: in vivo, 336 h, time 14 day
[37] = AUC (0 to infinity) in Wistar Albino rat by HPLC analysis; format: ADME; design: time infinity; details: in vivo
[38] = MRT (0 to t) in Wistar Albino rat by HPLC analysis; format: ADME; details: in vivo
[39] = Half life in Wistar Albino rat by HPLC analysis; format: ADME; details: in vivo
[40] = Elimination rate constant in Soviet Chinchilla rabbit by HPLC analysis; format: ADME, Oryctolagus cuniculus
[41] = Clearance in Wistar Albino rat by HPLC analysis; format: ADME; details: in vivo
[42] = C0 in Soviet Chinchilla rabbit by HPLC analysis; format: ADME, Oryctolagus cuniculus; details: in vivo
[43] = AUC (0 to infinity) in Soviet Chinchilla rabbit by HPLC analysis; format: ADME, Oryctolagus cuniculus; design: time infinity; details: in vivo
[44] = Acute toxicity in 2 hrs fasted ICR mouse assessed as body weight reduction at 89.7 mg/kg, iv measured for 5 to 10 days; format: organism-based; details: in vivo
[45] = C0 in Wistar Albino rat by HPLC analysis; format: ADME; details: in vivo
[46] = Chronic toxicity in Soviet Chinchilla rabbit assessed as signs of intoxication at 120 to 243 mg/kg, iv administered once every 3 weeks; format: organism-based, Oryctolagus cuniculus; details: in vivo, 504 h, dose 120-243 mg/kg
[47] = Drug excretion in urine of Wistar Albino rat measured after 2 to 4 hrs; format: ADME; details: in vivo, time 2-4 hrs
[48] = Volume of distribution in Soviet Chinchilla rabbit by HPLC analysis; format: ADME, Oryctolagus cuniculus; details: in vivo
[49] = Chronic toxicity in Soviet Chinchilla rabbit assessed as change in blood albumin content at 120 to 243 mg/kg, iv administered once every 3 weeks; format: organism-based, Oryctolagus cuniculus; details: in vivo, 504 h, dose 120-243 mg/kg
[50] = Drug distribution in blood plasma of Wistar Albino rat measured after 2 to 4 hrs; format: ADME, cell-free; details: time 2-4 hrs
[51] = Acute toxicity in 2 hrs fasted ICR mouse assessed as maximum tolerated dose administered intravenously measured after 14 days; details: in vivo, route iv
[52] = Volume of distribution in Wistar Albino rat by HPLC analysis; format: ADME; details: in vivo
[53] = MRT (0 to t) in Soviet Chinchilla rabbit by HPLC analysis; format: ADME, Oryctolagus cuniculus; details: in vivo
[54] = Clearance in Soviet Chinchilla rabbit by HPLC analysis; format: ADME, Oryctolagus cuniculus; details: in vivo
[55] = Drug distribution in liver of Wistar Albino rat measured after 2 to 4 hrs; format: ADME, tissue-based; details: in vivo, time 2-4 hrs

## CN1/C(=C/C=C/C=C/C2=[N+](CCCCCC(=O)NCc3cn(CCCNC(=O)[C@H](Cc4ccc(O)cc4)NC(=O)[C@H](Cc4ccccc4)NC(=O)CCC(=O)NCCCCCC(=O)N(CCCC[C@H](NC(=O)N[C@@H](CCC(=O)O)C(=O)O)C(=O)O)Cc4cccc(Cl)c4)nn3)c3ccc(S(=O)(=O)[O-])cc3C2(C)C)C(C)(C)c2cc(S(=O)(=O)O)ccc21
[1]
  Drug uptake: Active
[2]
  inhibition: 95%
PC-3
  CC50: > 100 µM
[3]
  Drug excretion: Active
[4]
  solubility: 7000 µg/mL (≈ 4050 µM)
[5]
  Ki: 0.0026 µM
[6]
  Activity: 1.5 10^9(p/s)(uW/cm^2)
[7]
  Drug excretion: Active
[8]
  Drug uptake: Active
[9]
  Drug uptake: Active
[10]
  inhibition: 2.79%
[11]
  inhibition: 35.3%
[12]
  Drug uptake: Active
[13]
  logD: -1.2
[14]
  fold change (FC): 4.1
[15]
  Activity: 1.5 10^9(p/s)(uW/cm^2)
[16]
  Drug uptake: Active
LNCaP
  CC50: > 100 µM

## CN1/C(=C/C=C2C=C(/C=C/C3=[N+](CCCCCC(=O)NCc4cn(CCCNC(=O)[C@H](Cc5ccc(O)cc5)NC(=O)[C@H](Cc5ccccc5)NC(=O)CCC(=O)NCCCCCC(=O)N(CCCC[C@H](NC(=O)N[C@@H](CCC(=O)O)C(=O)O)C(=O)O)Cc5cccc(Cl)c5)nn4)c4ccc(S(=O)(=O)[O-])cc4C3(C)C)CCC/2)C(C)(C)c2cc(S(=O)(=O)O)ccc21
[17]
  Drug uptake: Active
[18]
  half-life: 1.39 h
[19]
  Activity: Non-Toxic
[20]
  Drug uptake: Active
[21]
  Activity: Non-Toxic
[22]
  k el: 0.000179 s⁻¹
[23]
  AUC(0-t): 70000 ng·h/mL
[24]
  Activity: Non-Toxic
[25]
  Activity: Non-Toxic
[26]
  Activity: Non-Toxic
[27]
  Activity: Non-Toxic
[28]
  Activity: Toxic
[29]
  Drug uptake: Active
[30]
  Activity: Toxic
[31]
  Activity: Non-Toxic
[32]
  Activity: Non-Toxic
[33]
  AUC(0-t): 53000 ng·h/mL
[34]
  MTD at 336 h: 45 mg/kg
PC-3
  CC50: 18.7 µM
[3]
  Drug uptake: Active
[4]
  solubility: 560 µg/mL (≈ 312 µM)
[5]
  Ki: 0.0181 µM
[35]
  Activity: Non-Toxic
[36]
  Activity: Non-Toxic
[37]
  AUC(0-inf): 76000 ng·h/mL
[6]
  Activity: 1.9 10^9(p/s)(uW/cm^2)
[38]
  MRT last: 0.719 h
[39]
  half-life: 1.78 h
[40]
  k el: 0.000181 s⁻¹
[41]
  clearance: 8.22 mL/min/kg
[42]
  C0: 869 µg/mL
[43]
  AUC(0-inf): 82000 ng·h/mL
[44]
  Activity: Toxic
[45]
  C0: 342 µg/mL
[13]
  logD: -0.48
[46]
  Activity: Non-Toxic
[47]
  Drug excretion: Active
[48]
  Vd: 1.49 L/kg
[15]
  Activity: 1.9 10^9(p/s)(uW/cm^2)
[49]
  Activity: Toxic
[50]
  Drug uptake: Active
[51]
  MTD at 14 h: 89.7 mg/kg
[52]
  Vd: 0.954 L/kg
[53]
  MRT last: 0.18 h
[54]
  clearance: 14 mL/min/kg
LNCaP
  CC50: 12.2 µM
[55]
  Drug uptake: Active
